Calls of active or inactive are those of the source. The rule behind the calls is not given here.
Experiments:
[1] = Tmax in rat at 2.5 mg/kg, iv or 5 mg/kg, po; format: ADME, organism-based; conditions: in vivo
Adipocyte [2] = assay: Effect on 2-deoxy-D-[1-3H]glucose transport in Sprague-Dawley rat adipocytes at 10 uM in presence of insulin by liquid scintillation counting; format: functional
[3] = Cmax in rat at 2.5 mg/kg, iv or 5 mg/kg, po; format: ADME, organism-based; conditions: in vivo
Adipocyte [4] = assay: Effect on 2-deoxy-D-[1-3H]glucose transport in Sprague-Dawley rat adipocytes at 1 uM in absence of insulin by liquid scintillation counting; format: functional
[5] = Effect on insulin release in rat pancreatic cells at 100 umol/L after 6 hrs by radioimmunoassay; format: functional
Adipocyte [6] = assay: Effect on 2-deoxy-D-[1-3H]glucose transport in Sprague-Dawley rat adipocytes at 1 uM in presence of insulin by liquid scintillation counting; format: functional
Adipocyte [7] = assay: Effect on 2-deoxy-D-[1-3H]glucose transport in Sprague-Dawley rat adipocytes at 100 uM in presence of insulin by liquid scintillation counting; format: functional
Adipocyte [8] = assay: Increase in glucose absorption in Sprague-Dawley rat adipocytes at 100 uM by liquid scintillation counting relative to basal level; format: functional
Mus musculus [9] = assay: Reduction of plasma glucose level in fasted C57BL/6J mouse at 7 mg/kg, po administered daily for 3 days measured on day 5 by glucose oxidase trinder method; format: functional, organism-based; parameters: dose 7 mg/kg
Mus musculus [10] = assay: Reduction of plasma glucose level in fasted C57BL/6J mouse at 20 mg/kg, po administered daily for 3 days measured on day 5 after 6 hrs by glucose oxidase trinder method; format: functional; parameters: scale not given: the % may be the effect or the level left
[11] = Antiplatelet activity in human platelets assessed as inhibition of ADP-induced platelet aggregation; format: functional, cell-based
Adipocyte [12] = assay: Effect on 2-deoxy-D-[1-3H]glucose transport in Sprague-Dawley rat adipocytes at 10 uM in absence of insulin by liquid scintillation counting; format: functional
Mus musculus [13] = assay: Reduction of plasma glucose level in fasted C57BL/6J mouse at 2.5 mg/kg, po administered daily for 3 days measured on day 5 by glucose oxidase trinder method; format: functional, organism-based; parameters: dose 2.5 mg/kg
Mus musculus [14] = assay: Protection against collagen-epinephrine-induced mortality in Chinese Kunming cerebral thrombosis mouse model assessed as survival rate at 10 mg/kg, po administered once daily for 7 days measured on day 7 within 15 mins of collagen-epinephrine challenge; format: functional
Rattus norvegicus = assay: AUC in rat at 5 mg/kg, po; format: ADME, organism-based, Plasma; parameters: dose 5 mg/kg, route oral; conditions: in vivo
[15] = Oral bioavailability in rat at 5 mg/kg, po; format: ADME, organism-based; conditions: in vivo
[16] = Effect on insulin release in rat pancreatic cells at 1 umol/L after 6 hrs by radioimmunoassay; format: functional
[17] = Volume of distribution in rat at 2.5 mg/kg, iv or 5 mg/kg, po; format: ADME, organism-based; conditions: in vivo
[18] = Antiplatelet activity in human platelets assessed as inhibition of arachidonic acid-induced platelet aggregation; format: functional, cell-based
[19] = Effect on insulin release in rat pancreatic cells at 10 umol/L after 6 hrs by radioimmunoassay; format: functional
[20] = Clearance in rat at 2.5 mg/kg, iv or 5 mg/kg, po; format: ADME, organism-based; conditions: in vivo
Adipocyte [21] = assay: Effect on 2-deoxy-D-[1-3H]glucose transport in Sprague-Dawley rat adipocytes at 100 uM in absence of insulin by liquid scintillation counting; format: functional
Mus musculus [22] = assay: Protection against collagen-epinephrine-induced mortality in Chinese Kunming cerebral thrombosis mouse model assessed as survival rate at 20 mg/kg, po administered once daily for 7 days measured on day 7 within 15 mins of collagen-epinephrine challenge; format: functional
[23] = Increase in insulin release in rat pancreatic cells at 100 umol/L after 6 hrs by radioimmunoassay relative to basal level; format: functional
Mus musculus [24] = assay: Protection against collagen-epinephrine-induced mortality in Chinese Kunming cerebral thrombosis mouse model assessed as survival rate at 40 mg/kg, po administered once daily for 7 days measured on day 7 within 15 mins of collagen-epinephrine challenge; format: functional
[25] = Half life in rat at 2.5 mg/kg, iv; format: ADME, organism-based; parameters: dose 2.5 mg/kg, route intravenous; conditions: in vivo
[26] = Half life in rat at 5 mg/kg, po; format: ADME, organism-based; parameters: dose 5 mg/kg, route oral; conditions: in vivo

CC1CCC(NC(=O)NS(=O)(=O)c2ccc(CCNS(=O)(=O)c3ccc(Br)cc3)cc2)CC1 (configuration not stated)
Tmax [1]: 0.83 h | Activity (Adipocyte [2]): 7979.94 disintegrations/minute | Cmax [3]: 3330 ng/mL | Activity (Adipocyte [4]): 4871.74 disintegrations/minute | Activity [5]: 86.08 uIU/ml | Activity (Adipocyte [6]): 5996.43 disintegrations/minute | Activity (Adipocyte [7]): 8486.79 disintegrations/minute | fold change (FC) (Adipocyte [8]): 1.73 | Activity (Mus musculus [9]): Active | Activity (Mus musculus [10]): 50% | IC50 [11]: 3000 nM | Activity (Adipocyte [12]): 6512.65 disintegrations/minute | Activity (Mus musculus [13]): Active | survival at 10 mg/kg (Mus musculus [14]): 27.3% | AUC (Rattus norvegicus): 10000 ng·h/mL | bioavailability [15]: 52.7% | Activity [16]: 40.79 uIU/ml | Vd [17]: 0.78 L/kg | IC50 [18]: 210 nM | Activity [19]: 65.21 uIU/ml | clearance [20]: 6 mL/min | Activity (Adipocyte [21]): 7674.84 disintegrations/minute | survival at 20 mg/kg (Mus musculus [22]): 45.5% | fold change (FC) [23]: 3.64 | survival at 40 mg/kg (Mus musculus [24]): 72.7% | half-life [25]: 1.91 h | half-life [26]: 1.77 h

— ChEMBL document CHEMBL1153286, “Synthesis and biological evaluation of sulfonylurea and thiourea derivatives substituted with benzenesulfonamide groups as potential hypoglycemic agents” (Bioorg Med Chem Lett, 2009)
